biological target: T1, Steroid 17-alpha-hydroxylase/17,20 lyase (Homo sapiens, UniProt P05093); assay: Inhibition of human progesterone 17-alpha-hydroxylase.
T1 sequence (P05093 whole entry): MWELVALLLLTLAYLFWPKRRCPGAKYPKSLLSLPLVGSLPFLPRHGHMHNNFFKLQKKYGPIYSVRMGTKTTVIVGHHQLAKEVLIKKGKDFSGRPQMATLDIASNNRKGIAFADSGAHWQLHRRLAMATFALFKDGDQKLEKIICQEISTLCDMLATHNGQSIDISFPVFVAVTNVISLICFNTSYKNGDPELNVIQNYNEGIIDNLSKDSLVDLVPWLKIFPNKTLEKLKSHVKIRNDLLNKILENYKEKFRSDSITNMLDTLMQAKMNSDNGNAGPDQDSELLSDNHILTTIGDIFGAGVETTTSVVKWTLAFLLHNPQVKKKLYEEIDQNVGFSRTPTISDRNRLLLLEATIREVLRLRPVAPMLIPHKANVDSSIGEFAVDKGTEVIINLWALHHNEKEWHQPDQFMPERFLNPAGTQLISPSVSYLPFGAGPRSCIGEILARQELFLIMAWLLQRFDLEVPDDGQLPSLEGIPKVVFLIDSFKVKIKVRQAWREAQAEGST

SMILES | IC50 [nM]
C[C@]12CC[C@H](O)C[C@@H]1CC[C@@H]1[C@@H]2CC[C@]2(C)[C@@H](c3cccnc3)CC[C@@H]12 | 74
C[C@]12CC[C@H](O)C[C@@H]1CC[C@@H]1[C@@H]2CC[C@]2(C)C(c3cccnc3)CC[C@@H]12 (stereo not given in full) | 5
C[C@]12CCC(=O)C=C1CCC1C2CC[C@]2(C)C(c3cccnc3)=CCC12 (stereo not given in full) | 3

Continued by falling IC50, values first:

IC50 [nM] | SMILES
260 | C[C@]12CC[C@H](O)C[C@@H]1CC[C@@H]1[C@@H]2CC[C@@]2(C)[C@H]1C[C@H]1O[C@]12c1cccnc1
27 | C[C@]12CCC3C(CC=C4C[C@@H](O)CC[C@@]43C)C1CCC2c1ccncc1 (single isomer, unassigned)

From ChEMBL document CHEMBL1131444, “The 16,17-double bond is needed for irreversible inhibition of human cytochrome p45017alpha by abiraterone (17-(3-pyridyl)androsta-5, 16-dien-3beta-ol) and related steroidal inhibitors” (J Med Chem, 1998)
